Data on 18 molecules can be found in article PMC8165550, “Molecular basis for diaryldiamine selectivity and competition with tRNA in a type 2 methionyl-tRNA synthetase from a Gram-negative bacterium” (The Journal of Biological Chemistry, 2021).

For orientation: Kd means the free concentration of one partner at which half of the binding sites on the other are occupied at equilibrium, for simple one-to-one binding. In general, EC50 refers to the concentration that produces a half-maximal response. The term IC50 denotes the concentration needed to halve the response being measured. As usually defined, the kcat is the number of substrate molecules converted per active site and unit of time at saturation.

For one test, the system named is X. citri strain 306. The experiment in a line: Antibiogram, agar disc-diffusion assay. The following applies: X. citri strain 306, LBON-agar, 24 h at 28 °C.
The next test addresses T1, XcMetRS (Xanthomonas citri pv. citri, UniProt Q8PMP0).
T1 construct: His tag with TEV site (from pET28-TEV vector) (N); made in house; host or cells: E. coli BL21(DE3)
The experiment in a line: Isothermal titration calorimetry (ITC). The following applies: for Kd: 20 °C. The class given is binding. As for the experimental part:
ITC measurements were performed on a MicroCal VP-ITC calorimeter equipped with a VPViewer2000 software for data acquisition at the Spectroscopy and Calorimetry Lab facility (LEC) from the Brazilian Bioscience National Laboratory/Brazilian Centre for Research in Energy and Materials (LNBio/CNPEM). Purified XcMetRS (10 μM) was titrated against the ligands in 0.1 M Hepes, pH 7.5, containing 0.3 M NaCl, 10 mM MgCl2, 5% glycerol in the absence or presence of AMP or ATP at a 5 mM final concentration. To avoid nucleotide dilution, AMP/ATP was added to both ligand and receptor solutions. The ligands were added to the protein solutions kept in a 2-ml experimental cell using a titration syringe. The reactions were performed at 20 °C under agitation (200 rpm), starting with a first injection of 2 μl of ligand solution (200 μM) during 4 s, followed by 27 injections of 10 μl with 200-s intervals between injections. Titration results were corrected for ligand dilution, and all the data were analyzed using Origin7.0 software.
In general terms: ITC needs no label: the signal is the heat of the interaction.

In a further test the test system is X. citri 306. The test is described as follows: X. citri growth inhibition, broth microdilution with resazurin. The following applies: for MIC (minimum inhibitory concentration): X. citri 306, LBON, 28 °C, 24 h, at least 90% growth inhibition; for EC50 / MIC: Xanthomonas citri, 306, 24 h; for EC50: read-out: EC50 (growth inhibition); for MIC: read-out: MIC (minimum inhibitory concentration). A general note: Dilution methods test growth across graded concentrations, often in twofold steps.

Test [1] has as its target T2, XcMetRS (WT) (Xanthomonas citri pv. citri, UniProt Q8PMP0).
Procedure: Inhibition studies using the XcMetRS-ScAMD-CjIMPDH-diaphorase–coupled assay (Fig. S2) were performed at various concentrations (half-log serial dilutions starting at 100 μM) of the inhibitors in anhydrous dimethyl sulfoxide (DMSO). Assays were performed at 25 °C in black 384-well microplates in 25-μl final volume in 0.1 M Tris HCl, pH 7.5, 0.15 M KCl, 10 mM MgCl2, and 0.01% Triton X-100. […] Plots were prepared in GraphPad Prism.
Test [2] has as its target T2, XcMetRS (WT). The class given is binding. Further details: His tag with TEV site (from pET28-TEV vector) (N); made in house; host or cells: E. coli BL21(DE3). As for the experimental part: All wells contained 2% DMSO used to prepare stock solutions of REP3123 and REP8839. Protein unfolding was monitored on a 7500 Real-Time PCR System (Applied Biosystems) cycler by measuring fluorescence (λEmission = 580 nm) during 71 cycles starting at 25 °C, with a one-degree Celsius increment at each cycle. Experimental data points were normalized and adjusted to the equation y = ymin + ((ymax − ymin)/(1 + e^(Tm − T)/S)), where ymax and ymin are normalized fluorescence values, Tm is the melting temperature, T is the temperature, and S is the slope.

The target of test [3] is coupled enzyme system (ScAMD, CjIMPDH, diaphorase). The experiment in a line: Control: inhibition of the coupled enzyme system used to detect AMP production. As to conditions: read-out: IC50 on coupled enzyme system, without XcMetRS step.
Procedure: Inhibition studies using the XcMetRS-ScAMD-CjIMPDH-diaphorase–coupled assay (Fig. S2) were performed at various concentrations (half-log serial dilutions starting at 100 μM) of the inhibitors in anhydrous dimethyl sulfoxide (DMSO). Assays were performed at 25 °C in black 384-well microplates in 25-μl final volume in 0.1 M Tris HCl, pH 7.5, 0.15 M KCl, 10 mM MgCl2, and 0.01% Triton X-100.
Values correspond to measurements of four independent experiments and error bars denote standard deviations.
In test [4] the target is T2, XcMetRS (WT). The experiment in a line: XcMetRS enzyme kinetic assay (coupled fluorometric AMP/resorufin assay). The class given is biochemical. Further details: His tag with TEV site (from pET28-TEV vector) (N); made in house; host or cells: E. coli BL21(DE3). An excerpt: Similarly, vmax^app, K’, and Hill slope (h) were obtained for ATP using the equation v = (vmax^app x [S]^h)/(K’ + [S]^h). The catalytic rate constant (kcat) was estimated by the equation kcat = vmax^app/Et, where Et is the enzyme concentration in the assay.

≈ marks a conversion by molar mass, not a printed value. Where “and” joins values, the source holds several entries; their conditions need not be identical. Equal values may be shown once. Read-outs that look alike come from different tables or passages of the source.

T2 sequence (Q8PMP0 whole entry): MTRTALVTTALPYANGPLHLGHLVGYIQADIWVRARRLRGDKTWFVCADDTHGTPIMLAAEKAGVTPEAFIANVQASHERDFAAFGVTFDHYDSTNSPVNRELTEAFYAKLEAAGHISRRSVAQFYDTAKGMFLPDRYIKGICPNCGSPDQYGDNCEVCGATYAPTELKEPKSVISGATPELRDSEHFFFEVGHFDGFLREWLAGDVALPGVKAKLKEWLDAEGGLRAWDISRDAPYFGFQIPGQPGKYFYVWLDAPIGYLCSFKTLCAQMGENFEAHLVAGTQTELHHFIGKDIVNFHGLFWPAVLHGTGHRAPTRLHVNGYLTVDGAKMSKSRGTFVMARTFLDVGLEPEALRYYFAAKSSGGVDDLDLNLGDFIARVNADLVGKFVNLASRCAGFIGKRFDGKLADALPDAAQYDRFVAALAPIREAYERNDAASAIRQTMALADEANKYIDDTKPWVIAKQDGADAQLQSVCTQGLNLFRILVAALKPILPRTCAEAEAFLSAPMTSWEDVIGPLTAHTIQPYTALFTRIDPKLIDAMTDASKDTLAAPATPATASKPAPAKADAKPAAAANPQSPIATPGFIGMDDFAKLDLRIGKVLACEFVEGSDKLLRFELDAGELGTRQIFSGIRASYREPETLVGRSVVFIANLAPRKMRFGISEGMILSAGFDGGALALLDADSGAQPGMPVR
T1 sequence (Q8PMP0 whole entry): as above
Procedure for X. citri 306: (§1) X. citri 306 was cultivated on LBON medium (10 g/l tryptone; 5 g/l yeast extract; pH 7.0) at 28 °C. The susceptibility to distinct antibiotics was evaluated using the disc-diffusion method. Briefly, a bacterial suspension was prepared in sterile saline solution (0.85% NaCl) to an optical density of 0.1 (approximately 1.5 × 10^8 CFU/ml) and used to inoculate the surface of an LBON-agar plate (1.7% agar; 150 × 15 mm Petri dish; 55 ml/dish). Antibiotic discs were applied 15 min after inoculum, and after incubation for 24 h at 28 °C, images were recorded with a camera. The minimum inhibitory concentration was obtained through broth microdilution method. These assays were performed with eight replicates for each compound concentration. Serial 2-fold dilutions of compounds were prepared in DMSO and 1 μl transferred to sterile 96-well assay plates containing 49 μl of the culture media (LBON). Then, 50 μl of a bacterial suspension (1 × 10^6 CFU/ml) was added to each well. Plates were incubated at 28 °C for 24 h before addition of 10 μl of resazurin 0.02%. After a new incubation (up to 4 h), the fluorescence (λExc/Em = 570–615 nm) was measured using a plate reader (CLARIOstar, BMG LabTech). Blanks were prepared with culture media. Positive and negative controls were prepared with DMSO and tetracycline (10 μg/ml).
Procedure for X. citri strain 306: as §1

As to `CC1(C)S[C@@H]2[C@H](NC(=O)[C@H](N)c3ccc(O)cc3)C(=O)N2[C@H]1C(=O)O` [amoxicillin], the “susceptibility phenotype of X. citri in antibiogram” value (“susceptibility phenotype” for short) in the test with X. citri strain 306 is reported as “resistant”.
With `CO/N=C(\C(=O)N[C@@H]1C(=O)N2C(C(=O)O)=C(CSc3nc(=O)c(=O)[nH]n3C)CS[C@H]12)c1csc(N)n1` [ceftriaxone], in the test with X. citri strain 306, the “susceptibility phenotype” value is listed as “resistant”.
Still for that read-out and setting: the value for `NC[C@H]1O[C@H](O[C@H]2[C@H](O)[C@@H](O[C@H]3O[C@H](CO)[C@@H](O)[C@H](N)[C@H]3O)[C@H](N)C[C@@H]2N)[C@H](N)C[C@@H]1O` [tobramycin] was “close to breakpoint values considered for a resistant phenotype”; that for `CC(=O)OCC1=C(C(=O)O)N2C(=O)[C@@H](NC(=O)Cc3cccs3)[C@H]2SC1` [cephalothin] was “resistant”; that for `N[C@@H](C(=O)N[C@@H]1C(=O)N2C(C(=O)O)=C(Cl)CS[C@H]12)c1ccccc1` [cefaclor] was “resistant”.
Same read-out and setting: the result for `C[C@H]1[C@H](NC(=O)/C(=N\OC(C)(C)C(=O)O)c2csc(N)n2)C(=O)N1S(=O)(=O)O` [Aztreonam] reads “resistant”.
Same read-out and setting: the result for neomycin reads “close to breakpoint values considered for a resistant phenotype”.
As for `C=C(F)c1sc(CNCCCNc2cc(O)c3ccccc3n2)c(C)c1Br` [REP8839], the Kd at XcMetRS (in the presence of AMP (5 mM)) was 630 nM and 600 nM. Besides, on XcMetRS (in the presence of ATP (5 mM)), the dissociation constant (Kd) was 1370 nM and 1400 nM. In addition, the KD result on XcMetRS (in the absence of nucleotides) is given as “no KD for REP8839 could be measured”. Further, in the test with X. citri 306, the “MIC (minimum inhibitory concentration)” value stood at 64 µg/mL (≈ 142 µM), the EC50 worked out at 25.5 ± 1 µg/mL (≈ 56.6 µM) and the MIC came out at 64 µg/mL (≈ 142 µM). This molecule also showed an IC50 on XcMetRS (WT) [1] of 20800 ± 6500 nM. The Tm at XcMetRS (WT) [2] (ligand 25 µM) is given as 50,6 ± 0,1 ^oC. Also, the Tm at XcMetRS (WT) [2] (ligand + ATP:Mg) is 52,8 ± 0,1 ^oC.
On to `CO/N=C(\C(=O)N[C@@H]1C(=O)N2C(C(=O)[O-])=C(C[N+]3(C)CCCC3)CS[C@H]12)c1csc(N)n1` [cefepime], for which the “susceptibility phenotype” value with X. citri strain 306 is “resistant”.
On the same count and under the same terms, the value for `CO[C@@]1(NC(=O)Cc2cccs2)C(=O)N2C(C(=O)O)=C(COC(N)=O)CS[C@@H]21` [cefoxitin] was “resistant”.
In the case of `O=c1cc(NCCCN[C@@H]2CCOc3c(Br)cc(Br)cc32)[nH]c2ccsc12` [REP3123], in the test on X. citri 306, the “MIC (minimum inhibitory concentration)” value was above 128 µg/mL, the EC50 amounted to 60.5 ± 1 µg/mL (≈ 118 µM) and the MIC was above 128 µg/mL. Also, the half-maximal inhibitory concentration (IC50) in test [3] is 26400 nM. Moreover, the Tm at XcMetRS (WT) [2] (ligand 25 µM) is 47,9 ± 0,1 ^oC. For the same molecule, the Tm on XcMetRS (WT) [2] (ligand + ATP:Mg) is recorded as 50,7 ± 0,1 ^oC.
As for `CC1(C)S[C@@H]2[C@H](NC(=O)[C@H](N)c3ccccc3)C(=O)N2[C@H]1C(=O)O` [ampicillin], in the test on X. citri strain 306, the “susceptibility phenotype” value is on record as “resistant”.
Same read-out and setting: the value for `CO/N=C(\C(=O)N[C@@H]1C(=O)N2C(C(=O)O)=C(COC(C)=O)CS[C@H]12)c1csc(N)n1` [cefotaxime] was “resistant”.
Same read-out and setting: the result for `CC(C)(O/N=C(\C(=O)N[C@@H]1C(=O)N2C(C(=O)[O-])=C(C[n+]3ccccc3)CS[C@H]12)c1csc(N)n1)C(=O)O` [ceftazidime] reads “resistant”.
On the same count and under the same terms, the value for `C[C@@H](O)[C@H]1C(=O)N2C(C(=O)O)=C(SCCN=CN)C[C@H]12` [imipenem] was “resistant”.
For the molecule `Nc1ncnc2c1ncn2[C@@H]1O[C@H](COP(=O)(O)OP(=O)(O)OP(=O)(O)O)[C@@H](O)[C@H]1O` [ATP], at XcMetRS (WT) [4] (ATP as varied substrate), the kcat worked out at 0.33 ± 0.005 s⁻¹. In addition, the “h (Hill slope)” value at XcMetRS (WT) [4] (ATP varied) stood at 3.3. For the same molecule, on XcMetRS (WT) [4] (ATP varied, L-Met 200 μM), the “K’” value was 0.95 ± 0.08 mM. Also, the Tm at XcMetRS (WT) [2] (ligand 5 mM) is on record as 51.3 ^oC; on XcMetRS (WT) [2] (ligand 5 mM, listed as ATP:Mg), 51,3 ± 0,3 ^oC. In addition, the Tm shift on XcMetRS (WT) [2] (ligand alone) was 3.0 °C.
On to `O=C1CN(/N=C/c2ccc([N+](=O)[O-])o2)C(=O)N1` [nitrofurantoin], for which, in the test on X. citri strain 306, the “susceptibility phenotype” value is on record as “resistant”.
Take `CSCC[C@H](N)C(=O)O` [L-Met, L-methionine]: the catalytic constant (kcat) on XcMetRS (WT) [4] (L-Met as varied substrate) is 0.2062 ± 0.00467 s⁻¹. Further, the Tm on XcMetRS (WT) [2] (ligand 5 mM) was 55,9 ± 0,2 ^oC.
